# Laboratory results published in patent US9487489B2, “Halogen-substituted pyrazole derivatives as pest-control agents” (BAYER CROPSCIENCE AKTIENGESELLSCHAFT, priority 2013, dated 2016).
# Key:
# [1] = test system: adult houseflies (Musca domestica); test: Musca domestica test (MUSCDO); format: in vivo; conditions: application rate 100 ppm; after 2 days
# Protocol: F. Musca domestica Test (MUSCDO)
# Solvent: dimethyl sulphoxide
# To produce a suitable preparation of active compound, 10 mg of active compound are mixed with 0.5 ml of dimethyl sulphoxide, and the concentrate is diluted with water to the desired concentration.
# Vessels containing a sponge treated with sugar solution and the active compound preparation of the desired concentration are populated with 10 adult houseflies (Musca domestica).
# After 2 days, the kill in % is determined. 100% means that all of the flies have been killed; 0% means that none of the flies have been killed.
# [2] = test system: greenhouse red spider mite (Tetranychus urticae); test: Tetranychus urticae spray test, OP-resistant (TETRUR); format: in vivo; conditions: bean leaf discs, after 6 days
# In short: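 Percent kill, scored 6 days post-spray (0% = none dead, 100% = all dead), on Phaseolus vulgaris leaf discs infested with every life stage of the OP-resistant spider mite. Compound dissolved in acetone plus DMF, diluted to test concentration with emulsifier-containing water (1000 ppm).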
# [3] = test system: larvae of the mustard beetle (Phaedon cochleariae); test: Phaedon cochleariae spray test (PHAECO); format: in vivo; conditions: Chinese cabbage leaf discs, after 7 days
# In short: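 Kill of mustard beetle larvae is read as % mortality 7 days after spraying. Spray liquid: active compound in acetone plus dimethylformamide, brought up with water holding 1000 ppm alkylaryl polyglycol ether emulsifier and diluted further in emulsifier-water.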
# [4] = test system: L1 larvae of the Australian sheep blowfly (Lucilia cuprina); test: Lucilia cuprina test (LUCICU); format: in vivo; conditions: application rate 100 ppm; after 2 days
# In short: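 Percent mortality read at 2 days; 100% = all larvae killed, 0% = none. Test compound, predissolved in DMSO and water-diluted to the wanted level, was mixed into minced horsemeat holding roughly 20 first-instar larvae.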
# [5] = test system: engorged adult female cattle ticks (Boophilus microplus); test: Boophilus microplus injection test (BOOPMI Inj); format: in vivo; conditions: application rate 20 μg/animal; injection into abdomen; assessed after 7 days
# In short: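 Efficacy is read at 7 days as fertile egg laying (100% = no fertile eggs laid; 0% = all eggs fertile), with eggs of unclear fertility stored until larvae hatch at about 42 days. Five engorged adult females per dose each receive an abdominal injection of 1 μl compound dissolved in DMSO.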
# [6] = test system: adult cat fleas (Ctenocephalides felis); test: Ctenocephalides felis oral test (CTECFE); format: in vivo; conditions: application rate 100 ppm in citrated cattle blood; after 2 days
# In short: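 Mortality read at 2 days as percent of fleas killed. Compound predissolved in DMSO, diluted into citrated cattle blood and offered to roughly 20 unfed adult C. felis via parafilm membrane feeder.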
# [7] = logP determination by HPLC on a reversed-phase column (C18), EEC Directive 79/831 Annex V.A8; format: physicochemical; conditions: HPLC on reversed-phase column (C18), acetonitrile/water with formic acid, EEC Directive 79/831 Annex V.A8
# In short: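 Per EEC 79/831 Annex V.A8, values derive from HPLC retention at 2.0 ml/min and 55° C on a 50*4.6 C18 column. The 10→95% acetonitrile gradient (0.1%/0.09% formic acid) lasted 4.25 min plus a 1.25 min hold; mass detection was by MSD.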
# [8] = test system: adult dog ticks (Rhipicephalus sanguineus); test: Rhipicephalus sanguineus in vitro contact test with adult brown dog ticks (T2); conditions: after 48 h
# In short: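 Acetone solutions coated onto test tube walls and floor, giving 5 μg/cm^2 at 900 ppm. Five to ten adult ticks held per tube in the dark at room temperature for 48 h, then heated at 45-50° C for up to 5 min; efficacy is the percentage of dead or moribund ticks unable to climb away.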
# [9] = test system: caterpillars of the armyworm (Spodoptera frugiperda); test: Spodoptera frugiperda spray test (SPODFR); format: in vivo; conditions: maize leaf discs, after 7 days
# In short: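 Percent kill read at day 7 on caterpillar-infested maize leaf discs. Discs were first sprayed with aqueous emulsifier-containing (1000 ppm) preparations made from acetone/dimethylformamide solutions, and dried. Scale: 0% none dead, 100% all dead.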
# [10] = test system: adult cat fleas (Ctenocephalides felis); test: Ctenocephalides felis in vitro contact test with adult cat fleas (T1); conditions: application rate 5 μg/cm^2; after 48 h
# In short: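 Adult cat fleas (Ctenocephalides felis), 5-10 per tube, were exposed to the inner surface of 25 ml test tubes coated with compound in acetone. Tubes were incubated lying flat under ambient conditions. Efficacy was then read by standing tubes upright and knocking the fleas to the floor. Fleas that stayed motionless or moved uncoordinatedly counted as dead or moribund, where 100% means all fleas dead or moribund and 0% means none harmed.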
# [11] = test system: green peach aphid (Myzus persicae); test: Myzus persicae spray test (MYZUPE); format: in vivo; conditions: Chinese cabbage leaf discs, after 6 days
# Protocol: G. Myzus persicae-spray Test (MYZUPE)
# Solvents: 78 parts by weight of acetone
# • 1.5 parts by weight of dimethylformamide Emulsifier: alkylaryl polyglycol ether
# To produce a suitable preparation of active compound, 1 part by weight of active compound is dissolved using the stated parts by weight of solvent and made up with water comprising an emulsifier concentration of 1000 ppm until the desired concentration is reached. To produce further test concentrations, the preparation is diluted with emulsifier-containing water.
# Discs of Chinese cabbage leaves (Brassica pekinensis) infested by all stages of the green peach aphid (Myzus persicae) are sprayed with an active compound preparation of the desired concentration.
# After 6 days, the efficacy in % is determined 100% here means that all of the aphids have been killed; 0% means that no aphids have been killed.
Structure (SMILES),efficacy (kill in %) [1] [%],efficacy in % ([2]; application rate 100 g/ha) [%],efficacy in % ([3]; application rate 100 g/ha) [%],efficacy (kill in %) [4] [%],efficacy (laying of fertile eggs) [5] [%],efficacy (kill in %) [6] [%],logP [7],efficacy (dead or moribund ticks) ([8]; application rate 1 μg/cm^2) [%],efficacy in % ([9]; application rate 100 g/ha) [%],efficacy (dead or moribund fleas) [10] [%],efficacy in % ([3]; application rate 500 g/ha) [%],efficacy in % ([9]; application rate 500 g/ha) [%],efficacy (dead or moribund ticks) ([8]; application rate 5 μg/cm^2) [%],efficacy in % ([11]; application rate 100 g/ha) [%],efficacy in % ([2]; application rate 500 g/ha) [%],efficacy in % ([11]; application rate 500 g/ha) [%]
COc1ccc(-c2cnn(-c3c(C(F)(F)F)c(C(F)(F)C(F)(F)F)nn3C)c2)cc1C(=O)NC1(C#N)CC1 [Ic-67],95,100,100,100,100,100,3.77,80,–,–,–,–,–,–,–,–
COc1ccc(-c2cnn(-c3c(C(F)(F)F)c(C(F)(F)C(F)(F)F)nn3C)c2)cc1C(=O)NC1CC1 [Ic-68],80,100,100,100,100,100,3.86,100,83,100,–,–,–,–,–,–
Cn1nc(C(F)(F)C(F)(F)F)c(C(F)(F)F)c1-n1cc(-c2cc(C(=O)NC3(C#N)CC3)ncc2F)cn1 [Ic-73],90,100,–,100,100,100,–,80,100,–,100,100,80,–,–,–
CC1CC1NC(=O)c1cc(-c2cnn(-c3c(C(F)(F)F)c(C(F)(F)C(F)(F)F)nn3C)c2)ccc1Cl (centres unmarked) [Ic-79],–,100,100,–,–,–,4.15,–,100,–,–,–,–,90,–,–
Cn1nc(C(F)(F)F)c(CF)c1-n1cc(-c2ccc(Cl)c(C(=O)NC3(C#N)CC3)c2)cn1 [Ic-115],–,100,100,–,–,–,2.89,–,100,–,–,–,–,90,–,–
Cn1nc(C(F)(F)C(F)(F)F)c(C(F)(F)F)c1-n1cc(-c2ccc(Cl)c(C(=O)NC3C[S+]([O-])C3)c2)cn1 (centres unmarked) [Ic-116],–,–,–,–,–,–,3.03,–,–,–,100,100,–,–,100,90
Cn1nc(C(F)(F)C(F)(F)F)c(C(F)(F)F)c1-n1cc(-c2ccc(Cl)c(C(=O)NC3CS(=O)(=O)C3)c2)cn1 [Ic-117],–,–,–,–,–,–,3.37,–,–,–,100,100,–,–,100,90
Cn1nc(C(F)(F)C(F)(F)F)c(C=O)c1-n1cc(-c2ccc(Cl)c(C(=O)NC3(C#N)CC3)c2)cn1 [Ic-121],–,100,100,–,–,–,3.09,–,–,–,–,–,–,100,–,–
Cn1nc(C(F)(F)C(F)(F)F)c(C(F)(F)F)c1-n1cc(-c2ccc(Cl)c(C(=O)NC3CC(S(C)(=O)=O)C3)c2)cn1 (centres unmarked) [Ic-122],–,100,100,–,–,–,3.24,–,100,–,–,–,–,90,–,–
Cn1nc(C(F)(F)F)c(C(F)(F)F)c1-n1cc(-c2ccc(Cl)c(C(=O)NC3CC3)c2)cn1 [Ic-126],–,100,100,–,–,–,3.42,–,100,–,–,–,–,100,–,–
Cn1nc(C(F)(F)F)c(C(F)(F)F)c1-n1cc(-c2ccc(Cl)c(C(=O)NC3(C#N)CC3)c2)cn1 [Ic-127],–,100,100,–,–,–,3.3,–,100,–,–,–,–,100,–,–
Cc1ccc(-c2cnn(-c3c(C(F)(F)F)c(C(F)(F)C(F)(F)F)nn3C)c2)cc1C(=O)NC1(C#N)CC1 [Ic-129],–,100,100,–,–,–,3.73,–,100,–,–,–,–,90,–,–
Cn1nc(C(F)(F)C(F)(F)F)c(C(F)(F)F)c1-n1cc(-c2ccc(Cl)c(C(=S)NC3CC3)c2)cn1 [Ic-132],–,100,100,–,–,–,4.34,–,100,–,–,–,–,90,–,–
Cn1nc(C(F)(F)F)c(C(F)F)c1-n1cc(-c2ccc(Cl)c(C(=O)NC3CC3)c2)cn1 [Ic-133],–,100,100,–,–,–,3.01,–,100,–,–,–,–,100,–,–
Cn1nc(C(F)(F)F)c([S+](C)[O-])c1-n1cc(-c2ccc(Cl)c(C(=O)NC3(C#N)CC3)c2)cn1 (centres unmarked) [Ic-134],–,100,100,–,–,–,2.16,–,–,–,–,–,–,100,–,–
CC(CC1CC1)NC(=O)c1cc(-c2cnn(-c3c(C(F)(F)F)c(C(F)(F)C(F)(F)F)nn3C)c2)ccc1Cl (centres unmarked) [Ic-161],80,–,–,100,100,100,–,80,–,–,100,100,100,–,100,–
CCO[C@@H]1C[C@H]1NC(=O)c1cc(-c2cnn(-c3c(C(F)(F)F)c(C(F)(F)C(F)(F)F)nn3C)c2)ccc1Cl [Ic-180],–,–,–,–,–,–,3.99,–,–,–,100,100,–,–,100,90
Cn1nc(C(F)(F)C(F)(F)F)c(C(F)(F)F)c1-n1cc(-c2ccc(Cl)c(C(=O)NC3CC3C(F)(F)F)c2)cn1 (centres unmarked) [Ic-181],–,–,–,–,–,–,4.26,–,–,–,100,100,–,–,100,100
CSc1ccc(-c2cnn(-c3c(C(F)(F)F)c(C(F)(F)C(F)(F)F)nn3C)c2)cc1C(=O)NC1CC1 [Ic-182],–,90,100,–,–,–,3.81,–,100,–,–,–,–,100,–,–
CCN(CC)S(=O)(=O)c1ccc(-c2cnn(-c3c(C(F)(F)F)c(C(F)(F)C(F)(F)F)nn3C)c2)cc1C(=O)NC1CC1 [Ic-185],–,100,100,–,–,–,3.99,–,100,–,–,–,–,100,–,–
CCOC1CC1NC(=O)c1cc(-c2cnn(-c3c(C(F)(F)F)c(C(F)(F)C(F)(F)F)nn3C)c2)ccc1Cl (centres unmarked) [Ic-186],–,–,–,–,–,–,3.73,–,–,–,100,100,–,90,90,–
COC1(NC(=O)c2cc(-c3cnn(-c4c(C(F)(F)F)c(C(F)(F)C(F)(F)F)nn4C)c3)ccc2Cl)CC1 [Ic-187],–,–,–,–,–,–,3.83,–,–,–,100,100,–,–,100,90
